Test results: patent publication US12618096B2, “Rapid screen for antibiotic resistance and treatment regimen” (priority 2020, dated 2026)

How the values were obtained:
Format in all cases: cell-based
P. aeruginosa PAO1 = experiment: Resistance profile of bacterial strain
[1] = tested on: A. baumannii ATCC 17978 ColR; experiment: Resistance profile of bacterial strain
A. baumannii NCTC 13302 = experiment: Resistance profile of bacterial strain
A. baumannii ATCC 17978 = experiment: Resistance profile of bacterial strain
A. baumannii NCTC 10303 = experiment: Resistance profile of bacterial strain
[2] = tested on: Klebsiella pneumoniae (NCTC 13368); experiment: Bacterial impedance flow cytometry of antimicrobial peptides; settings: at the concentrations tested
Protocol: The method for determining the efficacy of different membrane penetrating peptide antimicrobials is essentially the same as for Example 1. Briefly, colonies are picked from plate carrying bacteria from a clinical sample (e.g. a urine sample from suspected UTI) into Tryptone soy broth (TSB) and incubated for 30 minutes prior to addition of the membrane penetrating peptide antimicrobial preparation. The incubation is typically carried out at 37° C. with shaking. […] The concentrations are selected to span the minimum inhibitory concentration of the two strains, as might be used clinically for an antimicrobial breakpoint determination. Optionally, the bacterial impedance flow cytometry method may be used to generate a measurement of the minimum inhibitory concentration or a fixed concentration is used on the basis of a resistant/susceptible breakpoint. The sample is incubated at 37° C. for 30 or 60 minutes in a static incubator at 37° C. The population at each timepoint is analysed using bacterial impedance flow cytometry and the data collected and analysed to measure both the viable cell number and any migration of the cell population out of a contour enclosing a percentage of a control or untreated population of the same species.
The bacterial impedance of the population was measured. […]

Compound | Resistance profile (P. aeruginosa PAO1) | Resistance profile [1] | Resistance profile (A. baumannii NCTC 13302) | Resistance profile (A. baumannii ATCC 17978) | Resistance profile (A. baumannii NCTC 10303) | Susceptibility of NCTC 13368 relative to NCTC 12923 [2]
O=C(O)c1cn(C2CC2)c2cc(N3CCNCC3)c(F)cc2c1=O [Ciprofloxacin] | Resistant | Colistin-Resistant Ciprofloxacin-Resistant; | Resistant | Resistant | Resistant | 
CC[C@H](C)[C@H](NC(=O)CN)C(=O)NCC(=O)N[C@@H](C)C(=O)N[C@H](C(=O)N[C@@H](CC(C)C)C(=O)N[C@@H](CCCCN)C(=O)N[C@H](C(=O)N[C@@H](CC(C)C)C(=O)N[C@H](C(=O)N[C@H](C(=O)NCC(=O)N[C@@H](CC(C)C)C(=O)N1CCC[C@H]1C(=O)N[C@@H](C)C(=O)N[C@@H](CC(C)C)C(=O)N[C@H](C(=O)N[C@@H](CO)C(=O)N[C@@H](Cc1c[nH]c2ccccc12)C(=O)N[C@H](C(=O)N[C@@H](CCCCN)C(=O)N[C@@H](CCCNC(=N)N)C(=O)N[C@@H](CCCCN)C(=O)N[C@@H](CCCNC(=N)N)C(=O)N[C@@H](CCC(N)=O)C(=O)N[C@@H](CCC(N)=O)C(N)=O)[C@@H](C)CC)[C@@H](C)CC)[C@@H](C)O)[C@@H](C)O)C(C)C)C(C)C [melittin] |  |  |  |  |  | lower susceptibility
Colistin | Sensitive | Colistin-Resistant Ciprofloxacin-Resistant; | Sensitive | Sensitive | Sensitive | 
Gentamicin | Resistant | Resistant | Gentamicin- Resistant; Imipenem -Resistant; | Resistant | resistant | 
Piperacillin/tazobactam | Piperacillin/tazobactam -Sensitive | Piperacillin/tazobactam -Sensitive | Piperacillin/tazobactam -Resistant | Piperacillin/tazobactam -Sensitive | Piperacillin/tazobactam -sensitive | 
